Test results published in US11457631B2, “Antimicrobial compounds and methods of use” (AEQUOR, INC., priority 2016, dated 2022).

Columns and labels:
Assay type in all cases: cell-based, Staphylococcus aureus
S. aureus ATCC 25923 [1] = assay: Minimum Inhibitory Concentration (MIC), CLSI M07-A9 modified for 96 well plates, planktonic bacteria; conditions: overnight incubation
Protocol: (§1) Antibacterial and antibiofilm assay were performed on human pathogens and industrial microorganisms associated with contamination: Staphylococcus aureus (ATCC 25923 and ATCC 12600), S. epidermidis (ATCC 12228 and ATCC 14990), Pseudomonas aeruginosa (ATCC 27853), E. coli (ATCC 25922), C. albicans ATCC 18804), oral flora bacteria Streptococcus mutans (ATCC 25175) and S. gordonii (ATCC 33399), and/or marine biofilm former Cobetia marina (ATCC 25374).
(§2) Antibacterial assays were performed on planktonic bacteria to determine the Minimum Inhibitory Concentrations (MICs) and Minimum Bactericidal Concentrations (MBCs) for the compounds. MICs are defined as the lowest concentration of an antimicrobial that will inhibit the visible growth of a microorganism after overnight incubation. The MICs were determined using the standard CLSI Method M07-A9 for Dilution Antimicrobial Susceptibility Tests for Bacteria That Grow Aerobically modified for 96 well plates. MBCs are the lowest concentration of antimicrobial that kill the organism. MBCs were determined using the standard CLSI Method M26-A for Determining Bactericidal Activity of Antimicrobial Agents modified for 96 well plates.
(§3) A selection of the compounds were used in the above assays against S. aureus (ATCC 25923).

S. aureus ATCC 25923 [2] = assay: Minimum Bactericidal Concentration (MBC), CLSI M26-A modified for 96 well plates; conditions: planktonic
Protocol: as §1, §2, §3

S. aureus ATCC 25923 [3] = assay: Minimum Biofilm Inhibition Concentration (MBIC), 96-well microplate static biofilm assay
Protocol: as §1
Antibiofilm assays were performed to determine the prevention and removal of biofilm. The 96-well microplate assay was used to determine the Minimum Biofilm Inhibition Concentration (MBIC) (Merritt, et al. 2005. Growing and analyzing static biofilms. Curr Protoc Microbiol. Chapter 1, Unit 1.)
The MBIC assay is defined as the lowest concentration of the compound that will inhibit the biofilm. The ASTM E2799-12 Standard Test Method for Testing Pseudomonas Biofilm using the Minimum Biofilm Eradicating Concentration (MBEC) assay was used to determine biofilm removal. The MBEC assay is defined as the lowest concentration of compound that will eradicate the biofilm. The qualitative MBEC is determined using a microplate reader at absorbance 630 nm and the quantitative MBEC is determined using log10 reduction.
as §3

S. aureus ATCC 25923 [4] = assay: Minimum Biofilm Eradicating Concentration (MBEC) assay, ASTM E2799-12; conditions: biofilm eradication
Protocol: Antibacterial and antibiofilm assay were performed on human pathogens and industrial microorganisms associated with contamination: Staphylococcus aureus (ATCC 25923 and ATCC 12600), S. epidermidis (ATCC 12228 and ATCC 14990), Pseudomonas aeruginosa (ATCC 27853), E. coli (ATCC 25922), C. albicans ATCC 18804), oral flora bacteria Streptococcus mutans (ATCC 25175) and S. gordonii (ATCC 33399), and/or marine biofilm former Cobetia marina (ATCC 25374). The MBIC assay is defined as the lowest concentration of the compound that will inhibit the biofilm. The ASTM […]-12 Standard Test Method for Testing Pseudomonas Biofilm using the Minimum Biofilm Eradicating Concentration (MBEC) assay was used to determine biofilm removal. The MBEC assay is defined as the lowest concentration of compound that will eradicate the biofilm. The qualitative MBEC is determined using a microplate reader at absorbance 630 nm and the quantitative MBEC is determined using log10 reduction. A selection of the compounds were used in the above assays against S. aureus (ATCC 25923).

CCCCNP(=O)(O)OC(C)=O [X is NH2; A is (CH2)3CH3, acetic (1-butyl phosphoramidic) anhydride]
0.25 % w/v: MIC (S. aureus ATCC 25923 [1]) | MBC (S. aureus ATCC 25923 [2]) | MBIC (S. aureus ATCC 25923 [3]) | MBEC (S. aureus ATCC 25923 [4])
